{"source": "PubChem BioAssay AID651971", "about": "(The Scripps Research Institute Molecular Screening Center, 2013)", "biological_target": "methionyl-tRNA synthetase (Trypanosoma brucei brucei) (UniProt Q38C91)", "sequence (Q38C91 1-773)": "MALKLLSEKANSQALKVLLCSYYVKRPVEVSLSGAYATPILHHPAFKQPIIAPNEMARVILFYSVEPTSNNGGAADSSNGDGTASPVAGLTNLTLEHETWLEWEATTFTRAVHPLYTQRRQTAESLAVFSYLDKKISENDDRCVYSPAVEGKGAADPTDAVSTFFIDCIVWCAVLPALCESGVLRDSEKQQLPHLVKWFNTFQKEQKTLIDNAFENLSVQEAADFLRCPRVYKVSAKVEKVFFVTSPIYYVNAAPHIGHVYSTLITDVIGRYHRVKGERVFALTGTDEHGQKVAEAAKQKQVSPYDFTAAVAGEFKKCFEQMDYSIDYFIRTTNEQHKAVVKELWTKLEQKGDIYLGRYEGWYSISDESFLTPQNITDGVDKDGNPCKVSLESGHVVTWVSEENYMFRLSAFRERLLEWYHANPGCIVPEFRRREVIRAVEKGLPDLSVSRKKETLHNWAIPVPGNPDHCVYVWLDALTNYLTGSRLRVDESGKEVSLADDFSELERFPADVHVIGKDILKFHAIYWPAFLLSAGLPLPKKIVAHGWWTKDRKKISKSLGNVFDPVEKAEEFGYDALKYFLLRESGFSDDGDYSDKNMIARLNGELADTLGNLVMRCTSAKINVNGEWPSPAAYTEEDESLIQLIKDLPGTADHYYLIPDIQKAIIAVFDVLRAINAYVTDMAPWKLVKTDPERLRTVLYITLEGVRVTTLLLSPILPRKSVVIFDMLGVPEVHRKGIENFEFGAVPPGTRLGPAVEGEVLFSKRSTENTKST", "assay": "T. brucei MetRS inhibitors, dose response, biochemical, luminescence (AID 651971)", "details": "recombinant T. brucei MetRS, luminescence (ATP consumption)", "note": "The source made the active and inactive calls. How the calls were made is not given here."}
{"compound": "Cc1ccc(C(=O)Nn2c(O)c(C=C3N=c4ccccc4=N3)sc2=S)cc1", "values": [{"measurement": "IC50", "value": "> 119 µM (inactive)"}]}
